Measured values from PubChem BioAssay AID2060485 (Molecular Pharmacology Branch, DTP, NCI, 2025).

Test system: A375 multi-cell spheroids with HUVEC/MSC, viability
Assay: Anticancer human tumor A375 cell line growth inhibition [GQUAD];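 further: spheroids exposed to compounds for seven days before readout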
Conditions: for IC50: curve of first compound; for viability, T/C: stronger effect = lower value
Summary of the method: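 Multi-cell-type spheroids of tumor cells with HUVEC and mesenchymal stem cells, treated with drug combinations. Concentrations descend in half-log steps from near clinical Cmax, or from 10 microM where Cmax is unknown; viability read-out.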

[1] = second compound 0.0316 µM, first compound 0.0316 µM
[2] = second compound 0.0316 µM, first compound 0.1 µM
[3] = second compound 0.0316 µM, first compound 0.316 µM
[4] = second compound 0.0316 µM, first compound 1 µM
[5] = second compound 0.0316 µM, first compound 3.16 µM
[6] = second compound 0.0316 µM, first compound 10 µM
[7] = second compound 0.1 µM, first compound 0.0316 µM
[8] = second compound 0.1 µM, first compound 0.1 µM
[9] = second compound 0.1 µM, first compound 0.316 µM
[10] = second compound 0.1 µM, first compound 1 µM
[11] = second compound 0.1 µM, first compound 3.16 µM
[12] = second compound 0.1 µM, first compound 10 µM
[13] = second compound 0.316 µM, first compound 0.0316 µM
[14] = second compound 0.316 µM, first compound 0.1 µM
[15] = second compound 0.316 µM, first compound 0.316 µM
[16] = second compound 0.316 µM, first compound 1 µM
[17] = second compound 0.316 µM, first compound 3.16 µM
[18] = second compound 0.316 µM, first compound 10 µM
[19] = second compound 1 µM, first compound 0.0316 µM
[20] = second compound 1 µM, first compound 0.1 µM
[21] = second compound 1 µM, first compound 0.316 µM
[22] = second compound 1 µM, first compound 1 µM
[23] = second compound 1 µM, first compound 3.16 µM
[24] = second compound 1 µM, first compound 10 µM
[25] = second compound 3.16 µM, first compound 0.0316 µM
[26] = second compound 3.16 µM, first compound 0.1 µM
[27] = second compound 3.16 µM, first compound 0.316 µM
[28] = second compound 3.16 µM, first compound 1 µM
[29] = second compound 3.16 µM, first compound 3.16 µM
[30] = second compound 3.16 µM, first compound 10 µM
[31] = second compound 10 µM, first compound 0.0316 µM
[32] = second compound 10 µM, first compound 0.1 µM
[33] = second compound 10 µM, first compound 0.316 µM
[34] = second compound 10 µM, first compound 1 µM
[35] = second compound 10 µM, first compound 3.16 µM
[36] = second compound 10 µM, first compound 10 µM

With `CC1COCCN1c1cc(-c2ccnn2C)c2ccnc(-c3ccn[nH]3)c2n1` (stereo unspecified) + Cc1cnc(CNC(=O)c2c(=O)c3ccc(N4CCCN(C)CC4)nc3n3c2sc2ccccc23)cn1 as the compound, how does the IC50 (second compound 0.0316 µM) read?
The IC50 was 279 nM.

What about the IC50 (second compound 0.1 µM) of the same compound?
The IC50 was 74.3 nM.

What about the IC50 (second compound 0.316 µM) of the same compound?
The IC50 was < 31.6 nM.

What about the IC50 (second compound 1 µM) of the same compound?
The IC50 was < 31.6 nM.

What about the IC50 (second compound 3.16 µM) of the same compound?
The IC50 was < 31.6 nM.

And the IC50 (second compound 10 µM)?
Its IC50 is < 31.6 nM.

And the viability, T/C [1]?
Its viability, T/C is 102%.

And the viability, T/C [2]?
The viability, T/C was 69.3%.

What about the viability, T/C [3] of the same compound?
The viability, T/C was 51.9%.

And the viability, T/C [4]?
Its viability, T/C is 28.3%.

And the viability, T/C [5]?
The viability, T/C was 13.8%.

And the viability, T/C [6]?
The viability, T/C was 13.9%.

What about the viability, T/C [7] of the same compound?
Its viability, T/C is 67.5%.

And the viability, T/C [8]?
The viability, T/C was 37.5%.

And the viability, T/C [9]?
Its viability, T/C is 35.9%.

What about the viability, T/C [10] of the same compound?
Its viability, T/C is 23.3%.

What about the viability, T/C [11] of the same compound?
The viability, T/C was 13.7%.

And the viability, T/C [12]?
The viability, T/C was 9.98%.

What about the viability, T/C [13] of the same compound?
Its viability, T/C is 39.5%.

What about the viability, T/C [14] of the same compound?
The viability, T/C was 33.8%.

What about the viability, T/C [15] of the same compound?
Its viability, T/C is 27.6%.

And the viability, T/C [16]?
Its viability, T/C is 21.7%.

And the viability, T/C [17]?
Its viability, T/C is 13.9%.

And the viability, T/C [18]?
Its viability, T/C is 10.4%.

What about the viability, T/C [19] of the same compound?
The viability, T/C was 38.2%.

What about the viability, T/C [20] of the same compound?
The viability, T/C was 35%.

What about the viability, T/C [21] of the same compound?
The viability, T/C was 29.6%.

What about the viability, T/C [22] of the same compound?
Its viability, T/C is 21.5%.

What about the viability, T/C [23] of the same compound?
Its viability, T/C is 12.7%.

What about the viability, T/C [24] of the same compound?
Its viability, T/C is 11.3%.

What about the viability, T/C [25] of the same compound?
Its viability, T/C is 30.8%.

What about the viability, T/C [26] of the same compound?
Its viability, T/C is 30.2%.

What about the viability, T/C [27] of the same compound?
The viability, T/C was 30.7%.

And the viability, T/C [28]?
Its viability, T/C is 22.4%.

What about the viability, T/C [29] of the same compound?
The viability, T/C was 13.2%.

What about the viability, T/C [30] of the same compound?
Its viability, T/C is 10%.

And the viability, T/C [31]?
Its viability, T/C is 26.7%.

And the viability, T/C [32]?
Its viability, T/C is 27.9%.

What about the viability, T/C [33] of the same compound?
Its viability, T/C is 24.1%.

And the viability, T/C [34]?
The viability, T/C was 16.9%.

What about the viability, T/C [35] of the same compound?
Its viability, T/C is 13.3%.

What about the viability, T/C [36] of the same compound?
Its viability, T/C is 9.71%.

What does the source list for `CC1COCCN1c1cc(C2(O)CC3CCC(C2)O3)c2cnn(-c3ccn[nH]3)c2n1` (stereo unspecified) + Cc1cnc(CNC(=O)c2c(=O)c3ccc(N4CCCN(C)CC4)nc3n3c2sc2ccccc23)cn1?
IC50 (second compound 0.0316 µM): 127 nM; IC50 (second compound 0.1 µM): 57.5 nM; IC50 (second compound 0.316 µM): < 31.6 nM; IC50 (second compound 1 µM): < 31.6 nM; IC50 (second compound 3.16 µM): < 31.6 nM; IC50 (second compound 10 µM): < 31.6 nM; viability, T/C [1]: 86.1%; viability, T/C [2]: 51.7%; viability, T/C [3]: 38.3%; viability, T/C [4]: 15.7%; viability, T/C [5]: 10.2%; viability, T/C [6]: 7.77%; viability, T/C [7]: 57%; viability, T/C [8]: 42.5%; viability, T/C [9]: 31.2%; viability, T/C [10]: 15.2%; viability, T/C [11]: 11%; viability, T/C [12]: 7.11%; viability, T/C [13]: 38%; viability, T/C [14]: 29.7%; viability, T/C [15]: 28.9%; viability, T/C [16]: 19.1%; viability, T/C [17]: 10.3%; viability, T/C [18]: 7.26%; viability, T/C [19]: 40.9%; viability, T/C [20]: 32%; viability, T/C [21]: 27.3%; viability, T/C [22]: 14.4%; viability, T/C [23]: 10.5%; viability, T/C [24]: 7.81%; viability, T/C [25]: 31.9%; viability, T/C [26]: 27.4%; viability, T/C [27]: 23.4%; viability, T/C [28]: 14.3%; viability, T/C [29]: 10.1%; viability, T/C [30]: 5.41%; viability, T/C [31]: 24.7%; viability, T/C [32]: 22.5%; viability, T/C [33]: 21.8%; viability, T/C [34]: 13.7%; viability, T/C [35]: 9.6%; viability, T/C [36]: 4.53%

For `O=C(c1cc(Cc2n[nH]c(=O)c3ccccc23)ccc1F)N1CCN(C(=O)C2CC2)CC1` + Cc1cnc(CNC(=O)c2c(=O)c3ccc(N4CCCN(C)CC4)nc3n3c2sc2ccccc23)cn1, which IC50 (second compound 0.0316 µM) is on record?
The IC50 was > 10000 nM.

What about the IC50 (second compound 0.1 µM) of the same compound?
Its IC50 is > 10000 nM.

What about the IC50 (second compound 0.316 µM) of the same compound?
Its IC50 is 760 nM.

What about the IC50 (second compound 1 µM) of the same compound?
Its IC50 is < 31.6 nM.

What about the IC50 (second compound 3.16 µM) of the same compound?
The IC50 was < 31.6 nM.

What about the IC50 (second compound 10 µM) of the same compound?
The IC50 was < 31.6 nM.

What about the viability, T/C [1] of the same compound?
The viability, T/C was 108%.

What about the viability, T/C [2] of the same compound?
The viability, T/C was 98.9%.

And the viability, T/C [3]?
Its viability, T/C is 101%.

And the viability, T/C [4]?
The viability, T/C was 95.5%.

And the viability, T/C [5]?
Its viability, T/C is 85.4%.

And the viability, T/C [6]?
The viability, T/C was 68.1%.

What about the viability, T/C [7] of the same compound?
Its viability, T/C is 80.9%.

What about the viability, T/C [8] of the same compound?
The viability, T/C was 71.1%.

And the viability, T/C [9]?
The viability, T/C was 65.8%.

And the viability, T/C [10]?
The viability, T/C was 65.3%.

And the viability, T/C [11]?
Its viability, T/C is 61.8%.

What about the viability, T/C [12] of the same compound?
The viability, T/C was 51.8%.

What about the viability, T/C [13] of the same compound?
The viability, T/C was 49.5%.

And the viability, T/C [14]?
The viability, T/C was 57.8%.

What about the viability, T/C [15] of the same compound?
Its viability, T/C is 58.6%.

What about the viability, T/C [16] of the same compound?
Its viability, T/C is 48.3%.

What about the viability, T/C [17] of the same compound?
The viability, T/C was 45%.

And the viability, T/C [18]?
The viability, T/C was 42%.

What about the viability, T/C [19] of the same compound?
Its viability, T/C is 40.6%.

And the viability, T/C [20]?
The viability, T/C was 40.6%.

And the viability, T/C [21]?
Its viability, T/C is 43.6%.

What about the viability, T/C [22] of the same compound?
Its viability, T/C is 35.7%.

And the viability, T/C [23]?
The viability, T/C was 38%.

What about the viability, T/C [24] of the same compound?
The viability, T/C was 34.7%.

What about the viability, T/C [25] of the same compound?
Its viability, T/C is 32%.

What about the viability, T/C [26] of the same compound?
Its viability, T/C is 36.7%.

And the viability, T/C [27]?
The viability, T/C was 43%.

And the viability, T/C [28]?
The viability, T/C was 31.4%.

And the viability, T/C [29]?
Its viability, T/C is 30.8%.

And the viability, T/C [30]?
Its viability, T/C is 32.7%.

And the viability, T/C [31]?
Its viability, T/C is 26.9%.

And the viability, T/C [32]?
Its viability, T/C is 30.4%.

What about the viability, T/C [33] of the same compound?
Its viability, T/C is 30.5%.

What about the viability, T/C [34] of the same compound?
The viability, T/C was 29.2%.

What about the viability, T/C [35] of the same compound?
The viability, T/C was 30.2%.

And the viability, T/C [36]?
The viability, T/C was 24.8%.
